Data from ChEMBL document CHEMBL1133841 (Bioorg Med Chem Lett, 2001).

Legend:
[1] = target: T1, Serine-threonine protein phosphatase 2A regulatory subunit (Gallus gallus, UniProt Q8AWE3); experiment: Inhibitory concentration against protein phosphatase 2A (PP2A) was determined
T1 sequence (Q8AWE3 whole entry): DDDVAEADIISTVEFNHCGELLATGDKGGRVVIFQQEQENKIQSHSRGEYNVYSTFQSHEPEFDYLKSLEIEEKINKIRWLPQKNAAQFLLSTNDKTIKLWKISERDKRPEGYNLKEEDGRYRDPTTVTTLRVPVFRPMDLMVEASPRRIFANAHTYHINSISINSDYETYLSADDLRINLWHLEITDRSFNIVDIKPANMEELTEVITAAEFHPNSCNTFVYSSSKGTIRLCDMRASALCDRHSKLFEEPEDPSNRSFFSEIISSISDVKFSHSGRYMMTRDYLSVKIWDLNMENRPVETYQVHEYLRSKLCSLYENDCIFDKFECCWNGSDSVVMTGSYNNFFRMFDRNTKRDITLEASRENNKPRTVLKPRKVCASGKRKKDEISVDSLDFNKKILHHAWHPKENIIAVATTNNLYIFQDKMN

[2] = Selectivity expressed as the ratio of PP2A/PP1 was determined
[3] = target: Serine/threonine-protein phosphatase PP1 catalytic subunit; experiment: Inhibitory concentration against protein phosphatase 1 was determined
[4] = target: T2, Serine-threonine protein phosphatase 2A regulatory subunit (Gallus gallus) (UniProt Q8AWE3); experiment: Selectivity expressed as the ratio of Protein phosphatase 2A/Protein phosphatase 1 was determined
T2 sequence (whole entry): T1 sequence (Q8AWE3 whole entry)

SMILES: O=C(O)CC[C@H](C(=O)O)N1C(=O)[C@@H]2[C@H](C1=O)[C@H]1CC[C@@H]2O1
- IC50 [1]: 32 µM
- Selectivity [2]: 3

SMILES: CC(C)C[C@@H](C(=O)O)N1C(=O)[C@@H]2[C@H](C1=O)[C@H]1CC[C@@H]2O1
- IC50 [1]: > 1000 µM

SMILES: C[C@@H](C(=O)O)N1C(=O)[C@@H]2[C@H](C1=O)[C@H]1CC[C@@H]2O1
- IC50 [1]: > 1000 µM

SMILES: O=C(O)[C@@H](Cc1ccccc1)N1C(=O)[C@@H]2[C@H](C1=O)[C@H]1CC[C@@H]2O1
- IC50 [1]: > 1000 µM

SMILES: O=C(O)[C@@H](Cc1c[nH]c2ccccc12)N1C(=O)[C@@H]2[C@H](C1=O)[C@H]1CC[C@@H]2O1
- IC50 [1]: 157 µM

SMILES: O=C(O)[C@H](Cc1c[nH]cn1)N1C(=O)[C@@H]2[C@H](C1=O)[C@H]1CC[C@@H]2O1
- IC50 [1]: 1.35 µM

SMILES: C[C@H](C(=O)O)N1C(=O)[C@@H]2[C@H](C1=O)[C@H]1CC[C@@H]2O1
- IC50 [1]: 150 µM

SMILES: CSC[C@@H](C(=O)O)N1C(=O)[C@@H]2[C@H](C1=O)[C@H]1CC[C@@H]2O1
- IC50 [1]: > 1000 µM

SMILES: CCOC(=O)C1C(C(=O)O)[C@@H]2CC[C@H]1O2 (stereo not given in full)
- IC50 [3]: 2960 nM
- Selectivity [4]: 6.5

SMILES: O=C(O)[C@H](Cc1c[nH]c2ccccc12)N1C(=O)[C@@H]2[C@H](C1=O)[C@H]1CC[C@@H]2O1
- IC50 [1]: 105 µM

SMILES: O=C(O)[C@@H](Cc1cnc[nH]1)N1C(=O)[C@@H]2[C@H](C1=O)[C@H]1CC[C@@H]2O1
- IC50 [1]: 0.81 µM

SMILES: CC(C)C[C@H](C(=O)O)N1C(=O)[C@@H]2[C@H](C1=O)[C@H]1CC[C@@H]2O1
- IC50 [1]: > 1000 µM

SMILES: O=C(O)[C@H](Cc1ccccc1)N1C(=O)[C@@H]2[C@H](C1=O)[C@H]1CC[C@@H]2O1
- IC50 [1]: > 1000 µM
